Laboratory results published in patent US8507509B2, “Saturated and insaturated bi- or tricyclic aryloxyacetamine derivatives and their use as fungicides” (Syngenta Crop Protection LLC, priority 2007, dated 2013).

Key:
Plasmopara viticola = Plasmopara viticola (downy mildew of grapevine), grapevine leaf disk assay, preventive; type: in vivo; conditions: foliar, 168 h, 200 ppm, grapevine leaf disks, assessed seven days after inoculation, read-out: control of fungal infection, Plasmopara viticola
Pyricularia oryzae = test: whole plant or invertebrate; type: in vivo; conditions: foliar, 96 h, read-out: control of fungal infection, Pyricularia oryzae
Septoria nodorum = Septoria nodorum (wheat glume blotch), wheat leaf segment assay, preventive; type: in vivo; conditions: Parastagonospora nodorum, foliar, 96 h; 200 ppm; wheat leaf segments; assessed four days after inoculation; read-out: control of fungal infection, Septoria nodorum
Phytophthora infestans = test: whole plant or invertebrate; type: in vivo; conditions: in Solanum lycopersicum, foliar, 96 h, read-out: control of fungal infection, Phytophthora infestans
Pythium ultimum = Pythium ultimum (Damping off), liquid culture growth inhibition in potato dextrose broth; type: cell-based; conditions: Globisporangium ultimum; 20 ppm; potato dextrose broth, 24° C.; inhibition of growth determined photometrically after 48 hours; read-out: control of fungal infection, Pythium ultimum
Septoria tritici = Septoria tritici (leaf blotch), liquid culture growth inhibition in nutrient broth; type: cell-based; conditions: Zymoseptoria tritici; 200 ppm; PDB broth, 24 C; inhibition of growth determined photometrically after 72 hrs; read-out: control of fungal infection, Septoria tritici
[1] = tested on: Puccinia recondita f.sp. tritici; test: Puccinia recondita f.sp. tritici (wheat brown rust), wheat leaf segment assay, preventive; type: in vivo; conditions: foliar, 216 h, 200 ppm, wheat leaf segments, assessed nine days after inoculation, read-out: control of fungal infection, Puccinia recondite f.sp. tritici
[2] = tested on: Erysiphe graminis f.sp. tritici; test: Erysiphe graminis f.sp. tritici (wheat powdery mildew), wheat leaf segment assay, preventive; type: in vivo; conditions: Blumeria graminis, foliar, 96 h; 200 ppm; wheat leaf segments; assessed four days after inoculation; read-out: control of fungal infection, Etysiphe graminis f.sp. tritici

C#Cc1cnc2ccc(OC(SC)C(=O)NC(C)(C)C=NOCC)cc2c1 (stereo not shown) [Compound No. 118, N-(2-Ethoxyimino-1,1-dimethyl-ethyl)-2-(3-ethynyl-quinolin-6-yloxy)-2-methylsulfanyl-acetamide]
≥ 60%: pest or weed control at 200 ppm (Plasmopara viticola) | pest or weed control at 200 ppm (Pyricularia oryzae) | pest or weed control at 200 ppm (Septoria nodorum) | pest or weed control at 200 ppm (Phytophthora infestans) | inhibition of growth at 20 ppm (Pythium ultimum) | inhibition of growth at 200 ppm (Septoria tritici) | pest or weed control at 200 ppm [1] | pest or weed control at 200 ppm [2]

C#Cc1cnc2ccc(OC(SC)C(=O)NC(C)(C)C=NOCC=C)cc2c1 (stereo not shown) [Compound No. 120, N-(2-Allyloxyimino-1,1-dimethyl-ethyl)-2-(3-ethynyl-quinolin-6-yloxy)-2-methylsulfanyl-acetamide]
≥ 60%: pest or weed control at 200 ppm (Plasmopara viticola) | pest or weed control at 200 ppm (Pyricularia oryzae) | pest or weed control at 200 ppm (Septoria nodorum) | pest or weed control at 200 ppm (Phytophthora infestans) | inhibition of growth at 20 ppm (Pythium ultimum) | inhibition of growth at 200 ppm (Septoria tritici) | pest or weed control at 200 ppm [1] | pest or weed control at 200 ppm [2]
